# Laboratory results: ChEMBL document CHEMBL4190183 (Medchemcomm, 2016)
# Activity calls are given as the source filed them. No cut-off for these calls is given here.
# Experiments:
# HepG2 [1] = assay: Induction of apoptosis in human HepG2 cells assessed as increase in p53 expression levels at 10 to 20 uM after 48 hrs by Western blot analysis; format: functional, cell-based
# Mesocricetus auratus [2] = organism: Mesocricetus auratus; assay: Half life in hamster liver microsomes at 1 uM by LC-MS/MS analysis; conditions: golden Syrian hamster
# DNA ligase 1 [3] = target: T1, DNA ligase 1 (Homo sapiens, UniProt P18858); assay: Binding affinity to human N-terminal His-tagged DNA ligase 1 DBD expressed in Escherichia coli BL21(DE3)RP cells at 1.25 to 5 uM by CD spectroscopic method
# [4] = Protein binding in hamster plasma at 10 uM at pH 7.4 incubated for 30 mins measured after 10 hrs by LC-MS/MS based equilibrium dialysis method; format: ADME, cell-free, Cricetulus griseus; conditions: chinese hamster, read-out: PPB
# DNA ligase 1 [5] = target: T1, DNA ligase 1; assay: Binding affinity to human full length N-terminal His-tagged DNA ligase 1 expressed in Escherichia coli BL21(DE3)RP cells assessed as destabilization of enzyme-nicked oligo DNA complex after 2 hrs by electrophoretic mobility shift assay
# DLD-1 = assay: Cytotoxicity against human DLD1 cells assessed as cell death at 10 uM after 48 hrs by MTT assay relative to control; format: functional
# HepG2 [6] = assay: Antimetastatic activity against human HepG2 cells assessed as wound healing at 20 uM after 12 hrs by microscopic method (reference value: 21%); format: functional
# HepG2 [7] = assay: Cell cycle arrest in human HepG2 cells assessed as accumulation at G0/G1 phase at 20 uM after 24 hrs by propidium iodide staining based flow cytometry (reference value: 56.8 +/- 1.16%); format: functional
# DNA ligase 1 [8] = target: T1, DNA ligase 1; assay: Inhibition of human DNA ligase 1 expressed in Escherichia coli BL21(DE3)RP cells assessed as reduction in nick sealing activity using fluorescently labelled ds nicked DNA as substrate after 30 mins by urea gel based imaging method
# [9] = Stability of the compound in simulated gastric fluid at 5 uM at pH 1.2 measured up to 60 mins by LC-MS/MS analysis; format: ADME; conditions: simulated gi fluid, pH 1.2, 1 h
# HepG2 [10] = assay: Cell cycle arrest in human HepG2 cells assessed as accumulation at G0/G1 phase at 10 uM after 12 hrs by propidium iodide staining based flow cytometry (reference value: 42.7 +/- 1.5%); format: functional
# HepG2 [11] = assay: Induction of cell death in human HepG2 cells at 5 uM after 48 hrs by MTT assay; format: functional, cell-based
# HepG2 [12] = assay: Induction of apoptosis in human HepG2 cells after 48 hrs by Annexin-V/PI staining based flow cytometry; format: functional, cell-based
# DNA ligase 1 [13] = target: T1, DNA ligase 1; assay: Binding affinity to human N-terminal His-tagged DNA ligase 1 DBD expressed in Escherichia coli BL21(DE3)RP cells at 10 uM by fluorescence spectroscopic analysis
# [14] = Retention time of the compound by LC-MS/MS analysis; format: physicochemical
# DNA ligase 1 [15] = target: T1, DNA ligase 1; assay: Residual activity of human DNA ligase 1 expressed in Escherichia coli BL21(DE3)RP cells assessed as DNA ligation at 100 uM using fluorescently labelled ds nicked DNA as substrate after 30 mins by urea gel based imaging method relative to control
# DNA [16] = assay: Induction of linearized Escherichia coli pUC18 DNA intercalation up to 600 uM after 30 mins by agarose gel electrophoresis method; format: nucleic-acid assay
# Mesocricetus auratus [17] = organism: Mesocricetus auratus; assay: Metabolic stability in hamster liver microsomes assessed as parent compound remaining at 1 uM after 60 mins in presence of NADPH by LC-MS/MS analysis; conditions: golden Syrian hamster
# HepG2 [18] = assay: Antimetastatic activity against human HepG2 cells assessed as wound healing at 10 uM after 12 hrs by microscopic method (reference value: 21%); format: functional
# HepG2 [19] = assay: Cell cycle arrest in human HepG2 cells assessed as accumulation at G0/G1 phase at 10 uM after 24 hrs by propidium iodide staining based flow cytometry (reference value: 56.8 +/- 1.16%); format: functional
# HepG2 [20] = assay: Induction of DNA damage in human HepG2 cells assessed as increase in gamma-H2AX expression levels at 10 to 20 uM after 48 hrs by Western blot analysis; format: functional, cell-based
# DNA ligase 1 [21] = target: T1, DNA ligase 1; assay: Binding affinity to human full length N-terminal His-tagged DNA ligase 1 expressed in Escherichia coli BL21(DE3)RP cells at 1.25 to 5 uM by CD spectroscopic method
# HepG2 [22] = assay: Cell cycle arrest in human HepG2 cells assessed as accumulation at G0/G1 phase at 20 uM after 12 hrs by propidium iodide staining based flow cytometry (reference value: 42.7 +/- 1.5%); format: functional
# HepG2 [23] = assay: Synergistic cytotoxicity against human HepG2 cells assessed as induction of cell death at 5 uM after 48 hrs in presence of 0.625 uM doxorubicin by MTT assay; format: functional, cell-based
# HepG2 [24] = assay: Antimetastatic activity against human HepG2 cells assessed as wound healing at 10 uM after 18 hrs by microscopic method (reference value: 32%); format: functional
# HepG2 [25] = assay: Antiproliferative activity against human HepG2 cells assessed as decrease in PCNA expression level at 10 to 20 uM after 48 hrs by Western blot analysis; format: functional, cell-based
# HEK293 = assay: Cytotoxicity against HEK293 cells assessed as cell death at 10 uM after 48 hrs by MTT assay relative to control; format: cell-based; conditions: human, hek293, 48 h
# DNA ligase 1 [26] = target: T1, DNA ligase 1; assay: Inhibition of human DNA ligase 1 expressed in Escherichia coli BL21(DE3)RP cells assessed as reduction in fluorescently labelled ds nicked DNA substrate ligation at 100 uM after 30 mins by urea gel based imaging method relative to control
# [27] = Aqueous solubility of the compound in triple distilled water at 1 to 1000 uM after 2 hrs by nephelometric method; format: physicochemical
# MDA-MB-231 = assay: Cytotoxicity against human MDA-MB-231 cells assessed as cell death at 10 uM after 48 hrs by MTT assay relative to control; format: functional
# Mesocricetus auratus [28] = organism: Mesocricetus auratus; assay: Intrinsic clearance in hamster liver microsomes at 1 uM by LC-MS/MS analysis; conditions: golden Syrian hamster
# DNA ligase 1 [29] = target: T1, DNA ligase 1; assay: Binding affinity to human full length N-terminal His-tagged DNA ligase 1 expressed in Escherichia coli BL21(DE3)RP cells at 10 uM by fluorescence spectroscopic analysis
# DNA [30] = assay: Inhibition of EtBr binding to Escherichia coli pUC18 DNA up to 400 uM after 30 mins by fluorescence spectroscopic analysis; format: nucleic-acid assay
# HCT-116 = assay: Cytotoxicity against human HCT116 cells assessed as cell death at 10 uM after 48 hrs by MTT assay relative to control; format: functional
# HepG2 [31] = assay: Cytotoxicity against human HepG2 cells assessed as decrease in cell viability after 48 hrs by MTT assay; format: functional, cell-based
# HepG2 [32] = assay: Cytotoxicity against human HepG2 cells assessed as cell death at 10 uM after 48 hrs by MTT assay relative to control; format: functional
# HepG2 [33] = assay: Anticlonogenic activity against human HepG2 cells at >= 10 uM incubated for 48 hrs measured after 10 days by crystal violet staining based microscopy; format: functional, cell-based
# [34] = Stability of the compound in simulated intestinal fluid at 5 uM at pH 6.8 measured up to 120 mins by LC-MS/MS analysis; format: ADME; conditions: simulated gi fluid, pH 6.8, 2 h
# HepG2 [35] = assay: Antimetastatic activity against human HepG2 cells assessed as wound healing at 20 uM after 18 hrs by microscopic method (reference value: 32%); format: functional
# A549 = assay: Cytotoxicity against human A549 cells assessed as cell death at 10 uM after 48 hrs by MTT assay relative to control; format: functional
# T1 sequence (P18858 whole entry): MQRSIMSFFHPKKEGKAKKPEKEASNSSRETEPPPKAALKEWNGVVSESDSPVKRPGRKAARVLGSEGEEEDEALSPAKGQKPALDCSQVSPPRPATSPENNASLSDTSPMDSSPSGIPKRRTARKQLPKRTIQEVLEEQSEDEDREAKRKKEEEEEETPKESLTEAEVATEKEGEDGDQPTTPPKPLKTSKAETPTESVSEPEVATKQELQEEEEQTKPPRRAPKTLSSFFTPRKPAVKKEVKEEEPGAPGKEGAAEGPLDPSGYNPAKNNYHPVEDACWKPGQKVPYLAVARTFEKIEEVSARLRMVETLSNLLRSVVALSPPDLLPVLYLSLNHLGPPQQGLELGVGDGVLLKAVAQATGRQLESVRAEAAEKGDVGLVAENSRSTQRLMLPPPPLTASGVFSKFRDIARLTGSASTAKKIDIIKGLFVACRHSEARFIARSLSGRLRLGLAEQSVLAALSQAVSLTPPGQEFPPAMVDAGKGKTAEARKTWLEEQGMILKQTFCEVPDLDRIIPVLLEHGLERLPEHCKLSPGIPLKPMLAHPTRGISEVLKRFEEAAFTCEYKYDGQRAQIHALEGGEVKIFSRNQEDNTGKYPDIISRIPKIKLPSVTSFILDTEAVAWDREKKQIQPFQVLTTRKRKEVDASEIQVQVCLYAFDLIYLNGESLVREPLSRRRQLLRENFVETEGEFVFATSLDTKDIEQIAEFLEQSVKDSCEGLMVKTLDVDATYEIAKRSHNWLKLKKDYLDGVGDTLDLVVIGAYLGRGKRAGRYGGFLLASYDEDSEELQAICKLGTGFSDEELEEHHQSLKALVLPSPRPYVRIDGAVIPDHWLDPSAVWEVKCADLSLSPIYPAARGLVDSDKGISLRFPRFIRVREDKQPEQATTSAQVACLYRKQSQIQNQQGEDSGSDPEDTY
structure (smiles),measurement,setting,value
CCOC(=O)C1=C(C)NC(=O)NC1c1cc(/C=N/NC(=O)Nc2cccc(OC)c2)c(O)c(C(C)(C)C)c1 (configuration not stated),Activity,HepG2 [1],Active
same,half-life at 1 µM,Mesocricetus auratus [2],20.8 min
same,Activity,DNA ligase 1 [3],Active
same,"fraction unbound at 10 h, 10 µM",[4],0.0098
same,Activity,DNA ligase 1 [5],Dose-dependent effect
same,Activity,DLD-1,29.4%
same,Activity,HepG2 [6],7.5%
same,Activity,HepG2 [7],84.8%
same,IC50,DNA ligase 1 [8],12.4 µM
same,inhibition,DNA ligase 1 [8],Dose-dependent effect
same,Stability,[9],Stable
same,Activity,HepG2 [10],59.1%
same,Activity,HepG2 [11],Active
same,Activity,HepG2 [12],Dose-dependent effect
same,Activity,DNA ligase 1 [13],Active
same,Retention_time,[14],2.98 min
same,ligation,DNA ligase 1 [15],17.4%
same,Activity,DNA [16],inactive
same,"remaining at 1 h, 1 µM",Mesocricetus auratus [17],12.9%
same,Activity,HepG2 [18],11.2%
same,Activity,HepG2 [19],68.1%
same,Activity,HepG2 [20],Active
same,Activity,DNA ligase 1 [21],Active
same,Activity,HepG2 [22],64%
same,Activity,HepG2 [23],Active
same,Activity,HepG2 [24],16.4%
same,Activity,HepG2 [25],Active
same,Activity,HEK293,11.7%
same,inhibition,DNA ligase 1 [26],82.7%
same,solubility kinetic at 2 h,[27],30 µM
same,Activity,MDA-MB-231,28.4%
same,CLH,Mesocricetus auratus [28],33.29 µL/min/mg
same,Activity,DNA ligase 1 [29],Active
same,inhibition,DNA [30],inactive
same,Activity,HCT-116,18.2%
same,Activity,HepG2 [31],Dose-dependent effect
same,IC50,"HepG2 [31]; HepG2, 48 h",10.6 µM
same,Activity,HepG2 [32],52.2%
same,Activity,HepG2 [33],Active
same,Stability,[34],Stable
same,Activity,HepG2 [35],5.5%
same,Activity,A549,18.1%
